Experimental findings from patent US4072751A, “Pesticidal N-substituted bis-carbamoyl sulfide compounds” (priority 1976, dated 1978) are described below.

Series [1] deals with southern armyworm (Prodenia Eridania, (Cram.)). In words: Southern Armyworm Leaf Spray Test. The format is in vivo. Set-up: key: A: excellent control; B: partial control; C: no control. Particulars: larvae; 500 parts of test compound per million parts of final formulation; 3 days. As to the method: (§1) Suspensions of the test compounds were prepared by dissolving one gram of compound in 50 milliliters of acetone in which had been dissolved 0.1 gram (10 percent of the weight of compound) of an alkylphenoxy polyethoxyethanol surfactant, as an emulsifying or dispersing agent. The resulting solution was mixed into 150 milliliters of water to give roughly 200 milliliters of a suspension containing the compound in finely divided form. The thus-prepared stock suspension contained 0.5 percent by weight of test compound. The test concentrations in parts per million by weight employed in the tests described hereinbelow were obtained by appropriate dilutions of the stock suspension with water. The test procedures were as follows:
Larvae of the southern armyworm (Prodenia Eridania, (Cram.), reared on Tendergreen bean plants at a temperature of 80±5° F. and relative humidity of 50±5 percent, constituted the test insects.
The test compounds were formulated by diluting the stock suspension with water to give a suspension containing 500 parts of test compound per million parts of final formulation. Potted Tendergreen bean plants of standard height and age were placed on a revolving turntable and sprayed with 100-110 milliliters of test compound formulation by use of a DeVilbiss spray gun set at 10 psig. air pressure.
This application which lasted 25 seconds was sufficient to wet plants to run-off. As a control, 100-110 milliliters of a water-acetone-emulsifier solution containing no test compound were also sprayed on infested plants. When dry, the paired leaves were separated and each one was placed in a 9 centimeter Petri dish lined with moistened filter paper. Five randomly selected larvae were introduced into each dish and the dishes were closed. The closed dishes were labeled and held at 80°-85° F. for 3 days. Although the larvae could easily consume the whole leaf within 24 hours, no more food was added. Larvae which were unable to move the length of the body, even upon stimulation by prodding, were considered dead. Percent mortality was recorded for various concentration levels.
(§2) In these tests the pesticidal activity of the compounds against aphid, mite, Southern Armyworm, Mexican Bean Beetle, and house fly was rated as follows: […]

For series [2], the system named is house flies (Musca domestica, L.). In words: Fly Bait Test. The format is in vivo. Set-up: key: A: excellent control; B: partial control; C: no control. Particulars: adults, 500 parts of test compound per million parts of final formulation, 24 hours. How it is done:
as §1
Four to 6 day old adult house flies (Musca domestica, L.) reared according to the specifications of the Chemical Specialties Manufacturing Association (Blue Book, McNair-Dorland Co., NY., 1954; pages 243-244, 261) under controlled conditions of 80±5° F. and 50±5 percent relative hmidity, were the test insects. The flies were immobilized by anesthetizing with carbon dioxide and 25 immobilized individuals, males and females, were transferred to a cage consisting of a standard food strainer about 5 inches in diameter which was inverted over a wrapping-paper-covered surface. The test compounds were formulated by diluting the stock suspension with a 10 percent (by weight) sugar solution to give a suspension containing 500 parts of test compound per million parts of final formulation, by weight. Ten milliliters of the test formulation were added to a souffle cup containing a one inch square of an absorbent cotton pad. This bait cup was introduced and centered on the blotting paper under the food strainer prior to admitting the anesthetized flies. The caged flies were allowed to feed on the bait for 24 hours, at a temperature of 80±5° F. and the relative humidity of 50±5 percent.
as §2

The subject of series [3] is bean aphid (Aphis Fabae Scop.). In words: Bean Aphid Foliage Spray Test. The format is in vivo. Set-up: key: A: excellent control; B: partial control; C: no control. Particulars: 500 parts of test compound per million parts of final formulation; 24 hour. How it is done:
as §1
Adults and nymphal stages of the bean aphid (Aphis Fabae Scop.) reared on potted dwarf nasturtium plants at 65°-70° F and 50-70 percent relative humidity, constituted the test insects. For testing purposes, the number of aphids per pot was standardized to 100-150 by trimming plants containing excess aphids.
The test compounds were formulated by diluting the stock suspension with water to give a suspension containing 500 parts of test compound per million parts of final formulation.
The potted plants (one pot per compound tested) infested with 100-150 aphids, were placed on a revolving turntable and sprayed with 100-110 milliliters of test compound formulation by use of a DeVilbiss spray gun set at 40 psig. air pressure. This application, which lasted 25 seconds, was sufficient to wet the plants to run-off. As a control, 100-110 milliliters of a water-acetone-emulsifier solution containing no test compound were also sprayed on infested plants. After spraying, the pots were placed on their sides on a sheet of white standard mimeograph paper which had been previously ruled to facilitate counting. Temperature and humidity in the test room during the 24 hour holding period were 65°-70° F. and 50-70 percent, respectively. Aphids which fell onto the paper and were unable to remain standing after being uprighted were considered dead. Aphids remaining on the plants were observed closely for movement and those which were unable to move the length of the body upon stimulator by prodding were considered dead. Percent mortality was recorded for various concentration levels.
as §2

Series [4] has as its system two-spotted mite (Tetranychus urticae Koch). In words: Mite Foliage Spray Test. Particulars: 500 parts of test compound per million parts of final formulation; 6 days. Set-up: key: A: excellent control; B: partial control; C: no control. The format is in vivo. As to the method: as §1
Adults and nymphal stages of the two-spotted mite (Tetranychus urticae Koch), reared on Tendergreen bean plants at 80±5 percent relative humidity, were the test organisms. Infested leaves from a stock culture were placed on the primary leaves of two bean plants 6 to 8 inches in height, growing in a 21/2 inch clay pot. 150-200 Mites, a sufficient number for testing, transferred from the excised leaves to the fresh plants in a period of 24 hours. Following the 24 hour transfer period, the excised leaves were removed from the infested plants. The test compounds were formulated by diluting the stock suspension with water to give a suspension with water to give a suspension containing 500 parts of test compound per million parts of final formulation. The potted plants (one pot per compound) were placed on a revolving turntable and sprayed with 100-110 milliliters of test compound formulation by use of a DeVilbiss spray gun set at 40 psig. air pressure. This application, which lasted for 25 seconds was sufficient to wet the plants to run-off. As a control, 100-110 milliliters of a water solution containing acetone and emulsifier in the same concnetrations as the test compound formulation, but containing no test compound, were also sprayed on infested plants. The sprayed plants were held at 80±5 percent relative humidity for 6 days, after which a mortality count of motile forms was made. Microscopic examination for motile forms was made on the leaves of the test plants. Any individual which was capable of locomotion upon prodding, was considered living.
as §2

Series [5] is described as follows: Mammalian Toxicity Test (peroral toxicity). Particulars: in vivo, po, rat, read-out: A. O. Rat (LD50). As to the method:
Certain of these compositions were also evaluated to determine their peroral toxicity to mammals. The animal selected for this experiment was the rat. The test results obtained are expressed in terms of the number of milligrams of compositions per kilogram of weight of the animal required to achieve a morality rate of 50 percent (LD50).

In series [6] the test system is Mexican bean beetle (Epilachna varivestis, Muls.). In words: Mexican Bean Beetle Leaf Spray Test. It counts as in vivo. Set-up: key: A: excellent control; B: partial control; C: no control. Particulars: fourth instar larvae; 500 parts of test compound per million parts of final formulation; 3 days. How it is done: as §1
Fourth instar larvae of the Mexican bean beetle (Epilachna varivestis, Muls.) reared on Tendergreen bean plants at a temperature of 80±5° and 50±5 percent relative humidity, were the test insects.
The test compounds were formulated by diluting the stock suspension with water to give a suspension containing 500 parts of test compound per million parts of final formulation. Potted Tendergreen bean plants of standard height and age were placed on a revolving turntable and sprayed with 100-110 milliliters of test compound formulation by use of a DeVilbiss spray gun set at 10 psig air pressure. This application, which lasted 25 seconds was sufficient to wet plants to run-off. As a control, 100-110 milliliters of a water-acetone-emulsifier solution containing no test compound were also sprayed on infested plants. When dry, the paired leaves were separated and each was placed in a 9 centimeter Petri dish lined with moistened filter paper. Five randomly selected larvae were introduced into each dish, and the dishes were closed. The closed dishes were labeled and held at a temperature of 80±5° F. for 3 days. Although the larvae could easily consume the leaf within 24 to 48 hours, no more food was added. Larvae which were unable to move the length of the body, even upon stimulation, were considered dead.
as §2

One may read the LD50 as the dose at which mortality reaches 50%. Take `CSC(C)=NOC(=O)N(C)SN(C)C(=O)ON=C(C)[S+](C)[O-]` (stereo not shown): the “Southern Armyworm” value in series [1] is “A”. For the same molecule, the Housefly entry in series [2] is reported as “A”. The Aphid entry in series [3] was “A”. The Mite entry in series [4] is on record as “C”. The 50% lethal dose (LD50) in series [5] was determined as 202 mg/kg. Also, in series [6], the “Mexican Bean Beetle” value is on record as “A”.

For `CSC(C)=NOC(=O)N(C)SN(C)C(=O)ON=C(C)S(C)(=O)=O`, the “Southern Armyworm” value in series [1] is “A”. Further, the Housefly entry in series [2] was “A”. The Aphid entry in series [3] is reported as “A”. Moreover, the Mite result in series [4] is “A”. The median lethal dose (LD50) in series [5] is 285 mg/kg. Besides, the “Mexican Bean Beetle” value in series [6] is “A”.

Consider `CC(=NOC(=O)N(C)SN(C)C(=O)ON=C(C)[S+](C)[O-])[S+](C)[O-]` (stereo not shown), for which the “Southern Armyworm” value in series [1] is “C”. The Housefly result in series [2] is listed as “C”. The Aphid result in series [3] is reported as “C”. Further, in series [4], the Mite result is on record as “C”. Besides, in series [6], the “Mexican Bean Beetle” value is “C”.

Consider `CC(=NOC(=O)N(C)SN(C)C(=O)ON=C(C)S(C)(=O)=O)S(C)(=O)=O`, for which the “Southern Armyworm” value in series [1] is “C”. For the same molecule, the Housefly entry in series [2] is on record as “C”. Further, in series [3], the Aphid entry is “C”. Besides, the Mite result in series [4] was “C”. Also, in series [6], the “Mexican Bean Beetle” value is given as “C”.
